From paper PMC6368365, “Didehydro-Cortistatin A Inhibits HIV-1 by Specifically Binding to the Unstructured Basic Region of Tat” (mBio, 2019)
Where two headings read alike, the source gives them in different places.

Key:
NL4-3 strain = experiment: HIV-1 NL4-3 infection of HeLa-CD4-LTR-LacZ reporter cells, LacZ measured 72 h later; assay type: cell-based; details: Human immunodeficiency virus 1, NL43
Description: To understand the structure-function relationship of the dCA molecule with respect to our structural model, we synthesized and characterized the ability of 11 analogs of dCA to inhibit HIV infection (Table 2). […] We used HeLa-CD4 cells stably expressing the HIV-1 5′ LTR driving β-galactosidase production (HeLa-CD4-LTR-LacZ cells) as a reporter for the infection with isolate NL4-3. Table 2 summarizes the IC50, 50% cytotoxic concentration (CC50), and therapeutic index (TI) for each compound. The loss of dCA activity was directly associated with the positioning and the chemical environment of the azote on the F ring and the presence of oxygen in ring B. Moreover, the E-F “skeleton angle” and the distance between the A-B-C-D and F rings affected the activity by more than 50-fold (analogs 7 and 10).
The activity of Tat in HeLa-CD4-LTR-Luc and OM10.1 cells was verified by a transactivation assay as described in reference. In HeLa-CD4-LTR-LacZ cells, the assay was performed as described in reference. A detailed protocol is provided in Text S1.
Transactivation assay. In HeLa-CD4-LTR-Luc cells and OM10.1 cells. The activity of Tat was verified by a transactivation assay as previously reported (13). Briefly, HeLa-CD4-LTR-Luc cells and OM10.1 were plated at 1×10^5 and 8x10^5 cells per well of a 6-well plate respectively. The following day, recombinant Tat protein was added to the cells in culture media without serum and in the presence of 100 μM of Chloroquine. Five hours later, serum was added at 5 % to the culture media. Cells were lysed 24 hrs later, protein concentration determined by Bradford assay and luciferase activity was measured for HeLa-CD4-LTR-Luc cells. Results corresponding to luciferase activity per protein concentration of each sample are shown as relative light unit (RLU). As for the OM10.1 cells, RNA was extracted using the RNA extraction kit (Qiagen) and DNA contamination was removed using Turbo-DNAse kit (Ambion). First-strand cDNA was synthesized using SuperscriptIII^TM first-strand cDNA kit (Invitrogen) and random hexamers as first-strand primers. qRT-PCR was performed with an aliquot of cDNA as template, using LightCycler? 480 SYBR Green I Master in a 20 µL reaction according to the manufacturer’s instructions. The mRNAs from each sample were used as negative control. Primer sequences for GAPDH (13) and all viral mRNAs as previously described (59). In HeLa-CD4-LTR-LacZ cells. It was performed as previously described (10). Briefly, cells were plated at 1×10^4 cells per well of a 96-well plate. Twenty-four hrs later HIV-1 NL4-3 strain was added in the presence of testing compound or DMSO. Seventy-two hrs post infection, cells were disrupted in lysis buffer (60 mM Na2HPO4, 40 mM NaH2PO4, 10 mM KCl, 10 mM MgSO4, 2.5 mM EDTA, 50 mM ß-mercaptoethanol, 0.125 % Nonidet P-40) and a quantitative chlorophenol red-ß-D-galactopyranoside (CPRG)-based (Boehringer Mannheim) assay was performed. The cell extracts were incubated in a reaction buffer (0.9 M phosphate buffer [pH 7.4], 9 mM MgCl2, 11 mM ß-mercaptoethanol, 7 mM CPRG) until a red color developed and measured with an LP400 (Becton Dickinson) plate reader at 572 nm.

recombinant Tat = target: T1, recombinant Tat (Human immunodeficiency virus type 1 group M subtype B, UniProt P69697); experiment: DARTS assay (protection from proteinase K); assay type: binding, HIV-1; details: 20 min room temperature, Western blot
T1 construct: pTatC6H-1 (NIH AIDS Reagent Program) plasmid encoding C-terminal 6xHistidine Tat1-86 (HXB3, subtype B); made in house; host or cells: E. coli BL21 (plasmid pTatC6H-1, NIH AIDS Reagent Program)
T1 sequence (P69697 whole entry): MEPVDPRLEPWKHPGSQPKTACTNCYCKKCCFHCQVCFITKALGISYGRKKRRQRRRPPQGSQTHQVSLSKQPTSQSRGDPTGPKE
Procedure: To confirm that dCA stabilizes Tat structure, we performed drug affinity responsive target stability (DARTS) assays to measure the protection against proteolysis conferred on the target protein by interaction with a small molecule. For this purpose, we incubated Tat with several concentrations of dCA and different concentrations of proteinase K (PK) for 20 min at room temperature. PK digests proteins preferably after hydrophobic, aliphatic, and aromatic residues. The protection was determined by Western blotting with an anti-His antibody (Fig. 5B). Tat alone was proportionally degraded with increasing concentrations of PK. […] Both the fluorescence assays and the DARTS assays support the notion that dCA stabilizes Tat protein.
dCA or an analog of dCA (analog 2) was incubated with 30 ng of recombinant Tat for 20 min at room temperature. Then PK (Ambion) was added at different concentrations. The remaining Tat was quantified by Western blotting using polyclonal anti-Tat antibodies (AIDS Reagent Program) at a 1:2,000 dilution.

[1] = set-up: method as in PMID 22817991, PMID 29045830, PMID 25613133; details: mice; cited from earlier work

CN(C)C1CC23CCC4(O2)C(=CCC2(C)C(c5ccc6ccncc6c5)=CCC24)C=C3C(O)C1O (stereo not shown) [dCA, didehydro-cortistatin A]
IC50 (NL4-3 strain; HeLa-CD4-LTR-LacZ cells infected with NL4-3, LacZ at 72 h, mean ± SD, n = 2 to 3, read-out: IC50): 0.6 ± 0.3 nM | IC50 (NL4-3 strain; span of Table 2 and earlier value, read-out: dCA inhibitory activity in cell-based assays): 0.6 to 2 nM | protection of Tat from proteinase K degradation (recombinant Tat): Tat degradation by PK was significantly reduced | bioavailability [1]: good bioavailability in mice
